ChEMBL document CHEMBL1136819, “Synthesis, anticholinesterase activity and structure-activity relationships of m-Aminobenzoic acid derivatives” (Bioorg Med Chem Lett, 2003)

Columns and labels:
Acetylcholinesterase [1] = molecular target: T1, Acetylcholinesterase (Torpedo californica, UniProt P04058)
Description: Inhibitory activity against acetylcholinesterase (AChE) from Torpedo californica (Reversible type of inhibition)

[2] = Partition coefficient (logP); assay type: physicochemical; settings: octanol/water
[3] = Lethal dose was reported; assay type: ADME
Acetylcholinesterase [4] = molecular target: T1, Acetylcholinesterase; test: Inhibitory activity against acetylcholinesterase (AChE) from Torpedo californica (Irreversible type of inhibition); set-up: species or system Tetronarce californica

T1 sequence (P04058 whole entry): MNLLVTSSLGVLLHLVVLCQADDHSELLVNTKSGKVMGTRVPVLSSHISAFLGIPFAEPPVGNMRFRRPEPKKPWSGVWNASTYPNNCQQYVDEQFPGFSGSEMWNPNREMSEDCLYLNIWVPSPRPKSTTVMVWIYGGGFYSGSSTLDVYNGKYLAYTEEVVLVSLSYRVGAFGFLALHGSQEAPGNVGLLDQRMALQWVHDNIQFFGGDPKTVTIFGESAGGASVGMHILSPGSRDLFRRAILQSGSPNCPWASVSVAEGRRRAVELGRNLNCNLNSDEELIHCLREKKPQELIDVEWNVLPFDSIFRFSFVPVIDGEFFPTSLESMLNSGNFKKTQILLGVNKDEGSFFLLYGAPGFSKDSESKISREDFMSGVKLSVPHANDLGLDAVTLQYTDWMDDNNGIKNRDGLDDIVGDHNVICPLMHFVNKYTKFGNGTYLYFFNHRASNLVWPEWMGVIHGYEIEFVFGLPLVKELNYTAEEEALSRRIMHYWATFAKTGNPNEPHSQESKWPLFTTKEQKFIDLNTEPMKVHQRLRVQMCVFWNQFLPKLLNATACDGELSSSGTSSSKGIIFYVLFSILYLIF

Structure (SMILES)	IC50 (Acetylcholinesterase [1]) [nM]	logP [2]	LD50 [3] [mg/kg]	IC50 (Acetylcholinesterase [4]) [nM]
O=C(O)c1cccc(N2C(=O)CCC2=O)c1	33.4	1.81	> 1000	
O=C(O)CCC(=O)Nc1cccc(C(=O)O)c1	92.5	1.41	> 1000	
O=C(O)/C=C\C(=O)Nc1cccc(C(=O)O)c1		1.09	> 1000	357
O=C(O)c1cccc(N2C(=O)C=CC2=O)c1		1.48		256
